A word on the melting point: it is the temperature, or range, at which the solid turns liquid.

Marks after values point to notes of the source that are not given here.

Results on 13 molecules are retold here after US6355640B1, “Pyrazolopyridine adenosine antagonists” (Fujisawa Pharmaceutical Co., Ltd., priority 1993, dated 2002).

The first data set deals with cisplatin induced renal failure. Description: Test 1. Effect on Cisplatin-induced Renal Failure. Conditions: Male JCL:SD rats, cisplatin 4.5 mg/kg i.p. at the same time as first dose; test compound 0.1 mg/kg i.v. twice a day for 3 days; measured on the 8th day; mean; p < 0.01 vs control group. Format: in vivo. On the procedure:
Male JCL:SD strain rats aged 9 weeks weighing 280-300 g received cisplatin (4.5 mg/kg) intraperitoneally. Normal rats were injected with an equal amount of saline instead of cisplatin. The effect of repeated intravenous administration of the test compound (0.1 mg/kg, twice a day) on cisplatin induced renal failure was investigated in rats. Cisplatin was given at the same time of the first dose of the test compound (for the test group) or vehicle (saline) (for the control group), and the test compound or vehicle was given for 3 days. The plasma creatinine concentrations were measured in all rats on the 8th day.
With `O=C(O)CC1=C(n2nc(-c3c(-c4ccccc4)nn4ccccc34)ccc2=O)CCCCC1` [Example 19, 3-[2-(2-carboxymethyl-1-cycloheptenyl)-3-oxo-2,3-dihydropyridazin-6-yl]-2-phenylpyrazolo[1,5-a]-pyridine], the serum creatinine was 1.32** mg/dl.

Test system in a further data set: not given
Experiment: not given
Settings: not given
On to `O=C(CC1=C(n2nc(-c3c(-c4ccccc4)nn4ccccc34)ccc2=O)CCCC1)N1CCN(C(c2ccccc2)(c2ccccc2)c2ccccc2)CC1` [Example 82, 3-[2-{2-(4-Triphenylmethylpiperazin-1-ylcarbonyl)methyl-1-cyclohexenyl}-3-oxo-2,3-dihydropyridazin-6-yl]-2-phenylpyrazolo[1,5-a]pyridine], for which the melting point was 249.5 to 250.5 °C.
Regarding `CCOC(=O)C[C@@H]1CCCC[C@H]1n1nc(-c2c(-c3ccccc3)nn3ccccc23)ccc1=O` (relative stereo) [Example 33(1), trans-3-[2-(2-Ethoxycarbonylmethylcyclohexyl)-3-oxo-2,3-dihydropyridazin-6-yl]-2-phenylpyrazolo[1,5-a]-pyridine], the melting point fell in the range of 172 to 173 °C.
On the same count and under the same terms, under `O=C(CCC1=C(n2nc(-c3c(-c4ccccc4)nn4ccccc34)ccc2=O)CCCC1)OCc1ccccc1` [Example 66, 3-[2-{2-(2-benzyloxycarbonylethyl)-1-cyclohexenyl}-3-oxo-2,3-dihydropyridazin-6-yl]-2-phenylpyrazolo[1,5-a]pyridine] stands 111 to 113 °C.
Same read-out and setting: under `NN=C1CCCCC1n1nc(-c2c(-c3ccccc3)nn3ccccc23)ccc1=O` (stereo not shown) [Example 88, 3-[2-(2-Hydrazonocyclohexyl)-3-oxo-2,3-dihydropyridazin-6-yl]-2-phenylpyrazolo[1,5-a]pyridine] stands 161 to 162 °C.
Still for that read-out and setting: under `O=C1CCCCC1n1nc(-c2c(-c3ccccc3)nn3ccccc23)ccc1=O` (single isomer, unassigned) [Example 2 (more polar compound), 3-[2-(2-oxocyclohexyl)-3-oxo-2,3-dihydropyridazin-6-yl]-2-phenylpyrazolo[1,5-a]pyridine] stands 166 to 168 °C.
With `O=c1ccc(-c2c(-c3ccccc3)nn3ccccc23)nn1C1CCCC(O)C1` (stereo not shown) [Example 104, 3-[2-(3-hydroxycyclohexyl)-3-oxo-2,3-dihydropyridazin-6-yl]-2-phenylpyrazolo[1,5-a]pyridine], the melting point fell in the range of 117 to 118 °C.
The same measure, in the same setting: in the case of `O=C(O)CCC1=C(n2nc(-c3c(-c4ccccc4)nn4ccccc34)ccc2=O)CCCC1` [Example 52, 3-[2-{2-(2-carboxyethyl)-1-cyclohexenyl}-3-oxo-2,3-dihydropyridazin-6-yl]-2-phenylpyrazolo[1,5-a]-pyridine] it was 184 to 185 °C.
The molecule `O=c1ccc(-c2c(-c3ccccc3)nn3ccccc23)nn1C1CCCCC1` [Example 1, 3-(2-cyclohexyl-3-oxo-2,3-dihydropyridazin-6-yl)-2-phenylpyrazolo[1,5-a]pyridine] yielded a melting point of 115 to 117 °C.
On to `O=C(O)[C@H]1CCC(=O)[C@@H](n2nc(-c3c(-c4ccccc4)nn4ccccc34)ccc2=O)C1` (relative stereo) (hydrate or solvate) [Example 17, cis-3-[2-(5-Carboxy-2-oxocyclohexyl)-3-oxo-2,3-dihydropyridazin-6-yl]-2-phenylpyrazolo[1,5-a]pyridine], for which the melting point was in the range of 155 to 165 °C.
The same measure, in the same setting: under `O=C(O)C[C@H]1CC[C@H](n2nc(-c3c(-c4ccccc4)nn4ccccc34)ccc2=O)C1` (relative stereo) [Example 40, trans-3-[2-(3-Carboxymethylcyclopentyl)-3-oxo-2,3-dihydropyridazin-6-yl]-2-phenylpyrazolo[1,5-a]pyridine] stands 212 to 213 °C.
Same read-out and setting: in the case of `NC(=O)CC1=C(n2nc(-c3c(-c4ccccc4)nn4ccccc34)ccc2=O)CCCC1` [Example 69, 3-[2-(2-Carbamoylmethyl-1-cyclohexenyl)-3-oxo-2,3-dihydropyridazin-6-yl]-2-phenylpyrazolo[1,5-a]pyridine] it was 204 to 205 °C.

Another data set deals with cisplatin induced renal failure. Description: Test 2. Effect on Cisplatin-induced Renal Failure. Format: in vivo. Conditions: Male JCL:SD rats, cisplatin 4.5 mg/kg i.p. 60 minutes after first dose; test compound 0.1 mg/kg i.v. twice a day for 8 days; measured on the 8th day; mean; P < 0.05 vs control group. On the procedure:
Male JCL:SD strain rats aged 9 weeks weighing 280-300 g received cisplatin (4.5 mg/kg) intraperitoneally. Normal rats were injected with an equal amount of saline instead of cisplatin. The effect of chronic intravenous administration of the test compound (0.1 mg/kg, twice a day) on cisplatin induced renal failure was investigated in rats. […] The plasma creatinine concentrations were measured in all rats on the 8th day.
As for `O=C(O)CC1=C(n2nc(-c3c(-c4ccccc4)nn4ccccc34)ccc2=O)CCCC1` [Example 58, 3-[2-(2-carboxymethyl-1-cyclohexenyl)-3-oxo-2,3-dihydropyridazin-6-yl]-2-phenylpyrazolo[1,5-a]pyridine], the serum creatinine is 1.10* mg/dl.
